“And” between values parts separate entries of the source, which are not always exact repeats. Equal values may be shown once.
What was measured:
CDK1/cyclin B = CDK1/cyclin B (Homo sapiens, UniProt P06493); assay: Invitrogen Z'-LYTE in vitro kinase activity assay; format: biochemical; conditions: 500 nM LCQ195, 100 μM ATP, 1% DMSO
CDK2/cyclin A [1] = target: T1, CDK2/cyclin A (Homo sapiens, UniProt P24941); assay: Invitrogen Z'-LYTE in vitro kinase activity assay; format: biochemical; conditions: 500 nM LCQ195, 100 μM ATP, 1% DMSO
CDK5/p25 = CDK5/p25 (Homo sapiens, UniProt Q00535); assay: Invitrogen Z'-LYTE in vitro kinase activity assay; format: biochemical; conditions: 500 nM LCQ195, 100 μM ATP, 1% DMSO
Sequence of CDK5/p25 (Q00535 whole entry): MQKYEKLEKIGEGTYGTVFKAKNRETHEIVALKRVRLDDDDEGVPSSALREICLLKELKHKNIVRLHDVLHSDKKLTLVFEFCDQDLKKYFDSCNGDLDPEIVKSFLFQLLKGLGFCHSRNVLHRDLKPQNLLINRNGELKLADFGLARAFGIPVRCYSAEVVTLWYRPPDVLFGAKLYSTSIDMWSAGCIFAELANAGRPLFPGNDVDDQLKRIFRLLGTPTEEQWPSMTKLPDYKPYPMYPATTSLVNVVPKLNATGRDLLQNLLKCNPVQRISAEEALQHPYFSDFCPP

CDK5/p35 = CDK5/p35 (Homo sapiens, UniProt Q00535); assay: Invitrogen Z'-LYTE in vitro kinase activity assay; format: biochemical; conditions: 500 nM LCQ195, 100 μM ATP, 1% DMSO
Sequence of CDK5/p35 (Q00535 whole entry): as above

CLK3 = CLK3 (Homo sapiens, UniProt P49761); assay: Invitrogen Z'-LYTE in vitro kinase activity assay; format: biochemical; conditions: 500 nM LCQ195, 100 μM ATP, 1% DMSO
Sequence of CLK3 (P49761 whole entry): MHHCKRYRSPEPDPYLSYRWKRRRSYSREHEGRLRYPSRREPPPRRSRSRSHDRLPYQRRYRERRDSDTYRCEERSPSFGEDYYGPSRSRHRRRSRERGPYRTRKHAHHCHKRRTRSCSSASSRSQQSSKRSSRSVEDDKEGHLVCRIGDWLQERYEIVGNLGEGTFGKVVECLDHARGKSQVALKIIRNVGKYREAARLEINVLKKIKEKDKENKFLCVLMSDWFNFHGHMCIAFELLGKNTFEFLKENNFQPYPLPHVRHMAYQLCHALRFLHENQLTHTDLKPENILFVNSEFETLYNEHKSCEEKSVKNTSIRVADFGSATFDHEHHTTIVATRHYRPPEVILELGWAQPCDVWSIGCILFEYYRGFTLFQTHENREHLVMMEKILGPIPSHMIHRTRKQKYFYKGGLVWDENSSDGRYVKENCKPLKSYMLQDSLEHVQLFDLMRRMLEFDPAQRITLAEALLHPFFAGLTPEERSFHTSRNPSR

CHEK2 (CHK2) = CHEK2 (CHK2) (Homo sapiens, UniProt O96017); assay: Invitrogen Z'-LYTE in vitro kinase activity assay; format: biochemical; conditions: 500 nM LCQ195, 100 μM ATP, 1% DMSO
Sequence of CHEK2 (CHK2) (O96017 whole entry): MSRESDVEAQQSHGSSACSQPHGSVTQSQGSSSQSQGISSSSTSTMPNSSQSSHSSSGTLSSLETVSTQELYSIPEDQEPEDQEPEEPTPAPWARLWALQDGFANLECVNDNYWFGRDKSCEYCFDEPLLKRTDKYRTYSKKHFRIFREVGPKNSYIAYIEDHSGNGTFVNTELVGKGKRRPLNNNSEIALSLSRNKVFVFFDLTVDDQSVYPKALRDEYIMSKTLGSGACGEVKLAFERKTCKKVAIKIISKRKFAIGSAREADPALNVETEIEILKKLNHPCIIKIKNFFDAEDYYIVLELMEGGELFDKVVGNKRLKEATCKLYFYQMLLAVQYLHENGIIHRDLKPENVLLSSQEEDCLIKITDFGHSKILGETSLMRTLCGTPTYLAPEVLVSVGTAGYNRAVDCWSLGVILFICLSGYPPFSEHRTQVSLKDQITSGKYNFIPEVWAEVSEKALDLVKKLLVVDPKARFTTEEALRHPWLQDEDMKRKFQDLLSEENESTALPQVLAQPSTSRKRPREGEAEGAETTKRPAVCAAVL

CDK2/cyclin A [2] = target: T1, CDK2/cyclin A; assay: Millipore KinaseProfilerXL kinase activity, dose titration; format: biochemical; conditions: 5-log dose titration 0.001-10μM
CDK2/cyclin E = CDK2/cyclin E (Homo sapiens, UniProt P24941); assay: as above; format: biochemical; conditions: 5-log dose titration 0.001-10μM
S6B45 MM cell line = assay: MTT colorimetric survival assay; format: cell-based, human; conditions: read-out: EC50 (viability), S6B45, 0-4 μM, 48 hrs
OPM2 MM cell line = assay: MTT colorimetric survival assay; format: cell-based, human; conditions: read-out: EC50 (viability), OPM2, 0-4 μM, 48 hrs
KMS-12-BM MM cell line = assay: MTT colorimetric survival assay; format: cell-based, human; conditions: read-out: EC50 (viability), 0-4 μM, 48 hrs
U266 MM cell line = assay: MTT colorimetric survival assay; format: cell-based, human; conditions: read-out: EC50 (viability), U266, 0-4 μM, 48 hrs
Delta 47 MM cell line = assay: MTT colorimetric survival assay; format: cell-based, human; conditions: read-out: EC50 (viability), Delta 47, 0-4 μM, 48 hrs
Dox40 MM cell line = assay: MTT colorimetric survival assay; format: cell-based, human; conditions: read-out: EC50 (viability), Dox40, 0-4 μM, 48 hrs
NOP2 MM cell line = assay: MTT colorimetric survival assay; format: cell-based, human; conditions: read-out: EC50 (viability), NOP2, 0-4 μM, 48 hrs
XG-1 MM cell line = assay: MTT colorimetric survival assay; format: cell-based, human; conditions: read-out: EC50 (viability), XG-1, 0-4 μM, 48 hrs
panel of MM cell lines = assay: MTT colorimetric survival assay, panel of MM cell lines; format: cell-based, human; conditions: read-out: EC50 (viability), majority of MM cell lines, 0-4 μM, 48 hrs
HS-5 BMSCs = assay: MTT viability of non-malignant stromal cells; format: cell-based, human; conditions: read-out: calculated EC50 (viability); non-malignant HS-5 BMSCs
[3] = system: immortalized hepatocyte cell line THLE-3; assay: MTT viability of immortalized hepatocytes; format: cell-based; conditions: read-out: calculated EC50 (viability); immortalized hepatocytes THLE-3
PBMCs = assay: MTT viability of PBMCs from healthy donors; format: cell-based, human; conditions: LCQ195 up to 8 μM for 48 hrs
[4] = system: CD138+ selected primary MM cells; assay: CellTiterGlo viability of purified primary tumor cells from MM patients; format: cell-based, human; conditions: increasing doses, 48 hrs
MM.1S cells [5] = assay: Flow cytometric cell cycle analysis; format: cell-based, human; conditions: 2 μM for up to 48 hours
MM.1S cells [6] = assay: Annexin V / PI flow cytometric analysis of apoptosis; format: cell-based, human; conditions: 2 μM, 4-48 hrs
MM.1S cells [7] = assay: InnoCyte Cytochrome C release assay; format: cell-based, human
[8] = system: Bcl-2 over-expressing MM.1S; assay: Survival of Bcl-2 over-expressing MM.1S vs parental cells; format: cell-based, human; conditions: LCQ195 treatment for 48 hrs
MM.1S cells [9] = assay: Immunoblotting analysis of LCQ195-treated cells; format: cell-based, human; conditions: 2 μM
MM.1S cells [10] = assay: Drug combination viability; format: cell-based, human; conditions: data not shown
MM.1S cells [11] = assay: Gene expression profiling; format: cell-based, human; conditions: 2 μM, 2-24hrs
MM.1S cells [12] = assay: Immunoblotting, comparison of LCQ195, flavopiridol and Taxol; conditions: equipotent doses: LCQ195 1 μM, flavopiridol 50 nM; 4-24 hrs

Sequence of CDK1/cyclin B (P06493 whole entry): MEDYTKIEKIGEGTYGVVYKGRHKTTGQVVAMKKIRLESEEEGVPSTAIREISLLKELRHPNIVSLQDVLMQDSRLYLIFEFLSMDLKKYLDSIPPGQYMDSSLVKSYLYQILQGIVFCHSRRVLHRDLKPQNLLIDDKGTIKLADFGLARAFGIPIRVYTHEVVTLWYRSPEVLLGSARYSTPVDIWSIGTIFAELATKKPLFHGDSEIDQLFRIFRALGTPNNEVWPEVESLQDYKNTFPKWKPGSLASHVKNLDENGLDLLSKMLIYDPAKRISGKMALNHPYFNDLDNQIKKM

CS(=O)(=O)N1CCC(NC(=O)c2[nH]ncc2NC(=O)c2c(Cl)cccc2Cl)CC1 [LCQ195]
inhibition of kinase activity (CDK1/cyclin B): potent inhibition | inhibition of kinase activity (CDK2/cyclin A [1]): potent inhibition | inhibition of kinase activity (CDK5/p25): potent inhibition | inhibition of kinase activity (CDK5/p35): potent inhibition | inhibition of kinase activity (CLK3): partial inhibition | inhibition of kinase activity (CHEK2 (CHK2)): partial inhibition | in vitro kinase activity in dose titration (CDK2/cyclin A [2]): active at sub-μM concentrations | in vitro kinase activity in dose titration (CDK2/cyclin E): active at sub-μM concentrations | EC50 (S6B45 MM cell line): < 1000 nM | EC50 (OPM2 MM cell line): < 1000 nM | EC50 (KMS-12-BM MM cell line): < 1000 nM | EC50 (U266 MM cell line): < 1000 nM | EC50 (Delta 47 MM cell line): < 1000 nM | EC50 (Dox40 MM cell line): > 4000 nM | EC50 (NOP2 MM cell line): > 4000 nM | EC50 (XG-1 MM cell line): > 4000 nM | EC50 (panel of MM cell lines): ~1000 nM and ≤ 1000 nM | EC50 (HS-5 BMSCs): > 4000 nM | EC50 [3]: > 4000 nM | percentage of viable PBMCs (PBMCs): ≥ 50% | response of purified primary tumor cells (viability) [4]: responded | cell cycle profile (MM.1S cells [5]): increased the percentage of cells in S and G2/M phases early, followed by an increase in sub-G1 population | apoptosis (Annexin V / PI staining) (MM.1S cells [6]): induces apoptosis | cytochrome c release (MM.1S cells [7]; 2 μM LCQ195 for 4-24hrs): no changes | effect of bcl-2 overexpression on cell survival after treatment [8]: minimal effect on cell survival | caspase 8, caspase 3 and PARP cleavage (immunoblotting) (MM.1S cells [9]; 0-24 hrs): cleavage as early as 16 hrs | caspase 9 cleavage (immunoblotting) (MM.1S cells [9]; 0-24 hrs): no cleavage of caspase 9 | Rb phosphorylation (immunoblotting) (MM.1S cells [9]; as early as 2 hours): pronounced decrease | combination with bortezomib (MM.1S cells [10]): no synergy | combination with doxorubicin (MM.1S cells [10]): no synergy | expression of transcription factors myc, IRF4 and XBP-1 (transcripts) (MM.1S cells [11]): suppressed | p107 levels (immunoblotting) (MM.1S cells [12]): decreased

CC(C)C[C@H](NC(=O)[C@H](Cc1ccccc1)NC(=O)c1cnccn1)B(O)O [PS-341, reference compound]
cytochrome c release (MM.1S cells [7]; positive control, 50 nM for 12 hrs): significant release of cytochrome C

CN1CC[C@H](c2c(O)cc(O)c3c(=O)cc(-c4ccccc4Cl)oc23)[C@H](O)C1 [flavopiridol, reference compound]
p107 levels (immunoblotting) (MM.1S cells [12]): stable

— publication PMC4042406 (British journal of haematology, 2011)
